Read-outs that look alike come from different tables or passages of the source.
Legend:
SET 2 (JAK2 V617F) cells = experiment: CCK-8 cell proliferation detection, SET2 cells; format: cell-based; details: Homo sapiens, SET-2; Table 2; CCK-8, 72 hrs
Source text: (§1) WST-8 (chemical name: 2-(2-methoxy-4-nitrophenyl)-3-(4-nitrophenyl)-5-(2,4-disulfo benzene)-2H-tetrazolium monosodium), which is reduced to a highly water-soluble yellow formazan product (Formazan dye) by the dehydrogenase in cells under the action of the electron carrier dimethyl 1-methoxy-5-methylphenazinium sulfate (1-Methoxy PMS). The amount of the produced formazan is proportional to the number of living cells. Therefore, the survival rate of cells can be calculated indirectly by measuring the absorbance at 450 nm. The half inhibition rate of the compound on the proliferation of H3122, SET2, HEL cells can be determined by the CCK-8 method.
(§2) RPIM medium containing 10% FBS was used to culture cells (100 μL per well), and 3500 cells were inoculated into a 96-well plate, and placed in a 37° C., 5% CO2 incubator for 24 h, until 50%-70% of the cell confluence was achieved. Drugs with different concentration gradients were added respectively, and incubated for another 72 hrs. […] And finally the absorption value of each well was measured at 450 nm.
(§3) NOTE: HEL, SET-2, H3122 cells were purchased from ATCC (American type culture collection), Z′-LYTETM kinase assay platform was purchased from Invitrogen, HTRF KinEASETM-TK was purchased from Cisbio, and Cell Counting Kit-8 was purchased from Beyotime.

JAK2 = JAK2 (Homo sapiens, UniProt O60674); experiment: JAK2 kinase activity test at molecular level (Z'-LYTE FRET); format: biochemical
Protocol: JAK2 can catalyze the transfer of a phosphate group of adenosine triphosphate (ATP) to a polypeptide substrate, and the polypeptide substrate is labeled with two fluorescent groups, coumarin and fluorescein. […] Therefore, the inhibition rates of different compounds can be calculated by measuring the ratio of enzyme-catalyzed substrate phosphorylation percentages.
10 μL reaction system, 2.5 μL test compound, 5 μL kinase/peptide substrate mixture and 2.5 μL ATP solution were added into a 384-well plate, shaken for 30 s, and incubated at room temperature for 1 hour. 5 μL of proteolytic enzyme and 15 μL of the reaction system were added and shaken for 30 s and incubated at room temperature for 1 h. 5 μL of stop reagent was added, and the reaction system with a total volume of 20 μL was shaken for 30 seconds. A microplate reader was used to detect the fluorescence signal. […] The inhibition rates of the compound at 7 concentration gradients were determined, and the IC50 value for each compound was calculated by fitting curve with Origin 8.0.
as §3

ALK = ALK (Homo sapiens, UniProt Q9UM73); experiment: ALK kinase IC50 test (HTRF); format: biochemical; details: Table 2
Source text: According to HTRF method, the peptide substrate was labeled with a biotin, which can specifically bind to XL665-labeled streptavidin. When the kinase adds a phosphate group to the polypeptide substrate in the first step, its Eu-labeled specific phosphorylation antibody can recognize and bind to it. In this way, in the second step of detection, a complex of XL665-labeled streptavidin, phosphorylated peptide substrate and Eu-labeled phosphorylation antibody can be formed. Since the distance between XL665 and Eu is short, FRET can be formed. On the other hand, Eu has a relatively long fluorescence half-life and can be applied to time-resolved fluorescence detection.
10 μL of reaction system, 4 μL test compound, 2 μL kinase, 2 μL biotin-labeled substrate and 2 μL ATP, was added into a 384-well plate, shaken for 30 s, and incubated at room temperature for 1 hour. 5 μL of Eu-labeled phosphorylation site-specific antibody and 5 μL of XL665-labeled streptavidin were added. The reaction system was shaken for 30 s, and incubated at room temperature for 1 hour. A microplate reader was used to detect the fluorescence signal. The inhibition rates of the compounds under 8 concentration gradients were determined, and the IC50 value of each compound was calculated by fitting curve with Origin 8.0. […] Each experiment was performed in triplicate.
as §3

H3122 cells = experiment: CCK-8 cell proliferation detection, H3122 cells; format: cell-based; details: Homo sapiens, NCI-H3122; Table 2; CCK-8, 72 hrs
Source text: as §1, §2, §3

HEL (JAK2 V617F) cells = experiment: CCK-8 cell proliferation detection, HEL cells; format: cell-based; details: Homo sapiens, Table 2, CCK-8, 72 hrs
Source text: as §1, §2, §3

[1] = Table 1, read-out: JAK2 kinase activity IC50

Chain of ALK (Q9UM73 19-1620, species assumed): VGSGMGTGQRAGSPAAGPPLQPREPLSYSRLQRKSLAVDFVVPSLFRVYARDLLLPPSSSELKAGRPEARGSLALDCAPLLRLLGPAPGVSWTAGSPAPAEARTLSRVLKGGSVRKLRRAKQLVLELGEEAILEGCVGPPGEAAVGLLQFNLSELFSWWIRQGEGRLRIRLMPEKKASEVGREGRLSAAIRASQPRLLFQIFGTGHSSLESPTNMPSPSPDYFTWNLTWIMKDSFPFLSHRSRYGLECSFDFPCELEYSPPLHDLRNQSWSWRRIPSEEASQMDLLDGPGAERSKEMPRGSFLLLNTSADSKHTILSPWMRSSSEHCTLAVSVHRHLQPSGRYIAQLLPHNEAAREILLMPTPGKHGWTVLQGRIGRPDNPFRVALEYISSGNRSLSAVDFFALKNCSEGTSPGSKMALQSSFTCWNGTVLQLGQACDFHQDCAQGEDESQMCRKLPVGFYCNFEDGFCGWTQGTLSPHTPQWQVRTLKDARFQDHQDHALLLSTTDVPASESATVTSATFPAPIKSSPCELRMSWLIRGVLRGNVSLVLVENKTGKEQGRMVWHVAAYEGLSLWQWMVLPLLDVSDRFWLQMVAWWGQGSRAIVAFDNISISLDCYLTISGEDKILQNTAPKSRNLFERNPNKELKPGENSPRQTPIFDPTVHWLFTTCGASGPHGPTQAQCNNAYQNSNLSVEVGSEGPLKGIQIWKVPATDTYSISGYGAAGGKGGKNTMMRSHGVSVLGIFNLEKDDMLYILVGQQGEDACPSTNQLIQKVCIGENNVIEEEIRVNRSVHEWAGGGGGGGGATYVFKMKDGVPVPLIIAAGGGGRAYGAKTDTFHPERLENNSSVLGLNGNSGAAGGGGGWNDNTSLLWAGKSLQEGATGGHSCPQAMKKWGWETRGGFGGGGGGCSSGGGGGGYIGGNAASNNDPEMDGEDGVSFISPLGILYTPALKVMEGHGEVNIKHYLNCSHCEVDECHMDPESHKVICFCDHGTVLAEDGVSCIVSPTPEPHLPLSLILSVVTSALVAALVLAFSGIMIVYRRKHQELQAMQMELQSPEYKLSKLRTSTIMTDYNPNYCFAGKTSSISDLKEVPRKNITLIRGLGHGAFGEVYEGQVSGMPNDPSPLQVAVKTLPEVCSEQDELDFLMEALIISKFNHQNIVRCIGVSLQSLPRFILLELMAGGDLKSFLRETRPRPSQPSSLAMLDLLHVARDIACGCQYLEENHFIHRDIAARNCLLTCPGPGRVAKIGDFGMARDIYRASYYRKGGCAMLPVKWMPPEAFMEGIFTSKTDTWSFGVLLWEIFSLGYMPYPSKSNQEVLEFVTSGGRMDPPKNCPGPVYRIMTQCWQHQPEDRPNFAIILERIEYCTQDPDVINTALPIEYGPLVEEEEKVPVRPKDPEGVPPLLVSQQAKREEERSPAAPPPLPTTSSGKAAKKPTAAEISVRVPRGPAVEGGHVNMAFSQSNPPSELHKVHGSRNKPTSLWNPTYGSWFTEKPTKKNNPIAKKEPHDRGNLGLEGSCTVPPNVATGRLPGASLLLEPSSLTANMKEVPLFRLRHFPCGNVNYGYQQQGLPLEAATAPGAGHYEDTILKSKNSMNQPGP
Chain of JAK2 (O60674 whole entry): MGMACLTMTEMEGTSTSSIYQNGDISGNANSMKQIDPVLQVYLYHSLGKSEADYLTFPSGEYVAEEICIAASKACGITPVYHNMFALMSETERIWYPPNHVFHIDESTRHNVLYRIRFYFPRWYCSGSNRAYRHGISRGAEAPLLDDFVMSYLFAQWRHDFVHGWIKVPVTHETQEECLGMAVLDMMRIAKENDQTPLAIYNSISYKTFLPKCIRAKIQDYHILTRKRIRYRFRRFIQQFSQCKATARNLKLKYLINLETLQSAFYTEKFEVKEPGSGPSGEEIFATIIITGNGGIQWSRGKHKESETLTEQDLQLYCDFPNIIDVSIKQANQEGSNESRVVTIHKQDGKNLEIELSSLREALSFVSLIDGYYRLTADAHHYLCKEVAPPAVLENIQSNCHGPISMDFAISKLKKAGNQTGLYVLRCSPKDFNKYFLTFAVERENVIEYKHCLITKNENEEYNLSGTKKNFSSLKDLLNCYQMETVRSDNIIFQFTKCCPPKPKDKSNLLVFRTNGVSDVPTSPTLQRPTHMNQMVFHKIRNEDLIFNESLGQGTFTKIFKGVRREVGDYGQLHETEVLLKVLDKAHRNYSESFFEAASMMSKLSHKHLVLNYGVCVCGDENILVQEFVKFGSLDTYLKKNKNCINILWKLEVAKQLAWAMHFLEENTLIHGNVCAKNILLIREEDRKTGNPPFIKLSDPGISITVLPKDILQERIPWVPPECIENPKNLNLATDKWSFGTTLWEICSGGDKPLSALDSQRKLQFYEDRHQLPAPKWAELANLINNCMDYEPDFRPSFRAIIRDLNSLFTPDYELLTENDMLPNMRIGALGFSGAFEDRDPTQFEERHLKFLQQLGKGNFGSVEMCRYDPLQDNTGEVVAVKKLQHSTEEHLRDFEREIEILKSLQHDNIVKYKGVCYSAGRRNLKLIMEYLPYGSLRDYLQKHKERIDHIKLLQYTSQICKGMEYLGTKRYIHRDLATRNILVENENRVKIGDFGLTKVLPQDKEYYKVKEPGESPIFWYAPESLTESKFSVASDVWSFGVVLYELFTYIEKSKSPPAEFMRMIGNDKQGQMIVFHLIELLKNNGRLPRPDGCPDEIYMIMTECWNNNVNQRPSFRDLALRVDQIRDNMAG

Structure (SMILES)	IC50 (SET 2 (JAK2 V617F) cells) [µM]	IC50 (JAK2; [1]) [µM]	IC50 (JAK2; Table 2, read-out: JAK2 IC50) [µM]	IC50 (ALK) [µM]	IC50 (H3122 cells) [µM]	IC50 (HEL (JAK2 V617F) cells) [µM]	melting point [°C]
CC(Oc1cc(-c2cnn(C3CCNCC3)c2)cnc1N)c1c(Cl)cccc1Cl (centres unmarked) [WWQ-133, 4-{3-[1-(2,6-dichlorophenyl)ethoxy]-2-aminopyridine}pyrazol-1-piperidine]	0.879	0.442 ± 0.003	0.442 ± 0.003	0.511	> 10	15	–
COc1ccc(F)c(Cl)c1C(C)Oc1cc(-c2cnn(C3CCNCC3)c2)cnc1N (centres unmarked) [WWQ-175, 4-{3-[1-(2-chloro-3-fluoro-6-methoxyphenyl)ethoxy]-2-aminopyridine}pyrazol-1-piperidine]	0.916	0.0265 ± 0.0265	–	0.423	4.83 ± 0.082	11.3	189.8 to 191.3
C[C@@H](Oc1cc(-c2cccnc2)cnc1N)c1c(Cl)ccc(F)c1Cl [WWQ-189, (R)-5-[1-(2,6-dichloro-3-fluorophenyl)ethoxy]-[3,3′-dipyridine]-6-amine]	11.1	3.05 ± 0.204	–	> 10	6.32 ± 0.128	13.2	158.8 to 159.8
C[C@@H](Oc1cc(-c2ccc(N3CCNCC3)nc2)cnc1N)c1c(Cl)ccc(F)c1Cl [WWQ-191, (R)-5-[1-(2,6-dichloro-3-fluorophenyl)ethoxy]-6′-piperazin-[3,3′-dipyridine]-6-amine]	3.22	0.804 ± 0.009	–	3.44	1.17 ± 0.093	30.1	197.8 to 198.5
CC(Oc1cc(-c2cnn(C3CCNCC3)c2)cnc1N)C1CCCCC1 (centres unmarked) [WWQ-197, 4-{3-[1-cyclohexaneethoxy]-2-aminopyridine}pyrazol-1-piperidine]	7.02	3.4 ± 0.431	3.4 ± 0.431	> 10	20.7 ± 0.394	12.9	192.2 to 193.4
CCC(Oc1cc(-c2cnn(C3CCNCC3)c2)cnc1N)c1c(Cl)ccc(F)c1Cl (centres unmarked) [WWQ-1093-13, 4-{3-[1-(2,6-dichloro-3-fluorophenyl)propoxy]-2-aminopyridine}pyrazol-1-piperidine]	7.86	0.1 ± 0.002	0.1 ± 0.002	3.56	3.537 ± 0.034	37.3	–
C[C@@H](Oc1cc(-c2cncc(N3CCNCC3)c2)cnc1N)c1c(Cl)ccc(F)c1Cl [WWQ-1093-23, (R)-5-[1-(2,6-dichloro-3-fluorophenyl)ethoxy]-5′-piperazine-[3,3′-dipyridine]-6-amine]	2.89	0.119 ± 0.0082	–	2.44	1.54 ± 0.034	10.4	189.7 to 190.6
C[C@@H](Oc1cc(-c2cnn(C3CCNCC3)c2)cnc1N)c1ccccc1 [WWQ-1093-25, 4-[3-(1-phenylpropoxy)-2-aminopyridine]pyrazole-1-piperidine]	4.61	0.215 ± 0.0124	–	5.43	3.52 ± 0.102	13.7	194.2 to 195
C[C@@H](Oc1cc(-c2cnn(C3CCOCC3)c2)cnc1N)c1c(Cl)ccc(F)c1Cl [WWQ-1093-27]	1.68	0.0647 ± 0.0004	–	0.855	7.18 ± 0.838	8.05	188.1 to 190.4
COc1ccc(F)cc1C(C)Oc1cc(-c2cnn(C3CCNCC3)c2)cnc1N (centres unmarked) [WWQ-1093-71]	0.616	0.003 ± 0.0001	0.003 ± 0.0001	1.33	< 0.5	9.97	191.6 to 192.3
C[C@@H](Nc1cc(-c2cnn(C3CCNCC3)c2)cnc1N)c1c(Cl)ccc(F)c1Cl [WWQ-1093-73, 4-{3-[1-(2,6-dichloro-3-fluorophenyl)ethylamino]-2-aminopyridine}pyrazole-1-piperidine]	2.2	0.126 ± 0.0053	–	3.45	4.366 ± 0.005	13.4	191.5 to 191.7
CC(Oc1cc(-c2ccccc2)cnc1N)c1cc(F)ccc1Cl (centres unmarked) [WWQ-1093-75, 3-(1-(2-chloro-5-fluorophenyl)ethoxy)-2-amino-5-phenylpyridine]	33.2	0.461 ± 0.002	0.461 ± 0.002	> 10	14.4 ± 4.21	24.5	199 to 199.8
Cc1n[nH]c(C)c1-c1cnc(N)c(OC(C)c2cc(F)ccc2Cl)c1 (centres unmarked) [XFL-107]	3.35	–	0.844 ± 0.1	3.37	1.45 ± 0.118	9.14	–
CC(Oc1cc(-c2cnn(C)c2)cnc1N)c1cc(F)ccc1Cl (centres unmarked) [XFL-111]	7.56	–	0.024 ± 0.002	0.201	3.52 ± 0.605	9.05	–
CC(Oc1cc(-c2cnoc2)cnc1N)c1cc(F)ccc1Cl (centres unmarked) [XFL-137]	> 10	–	> 10	> 10	> 100	> 50	–
Cc1n[nH]cc1-c1cnc(N)c(OC(C)c2cc(F)ccc2Cl)c1 (centres unmarked) [XFL-147]	4.05	–	0.0408 ± 0.0006	0.438	2.1 ± 0.344	6.15	–
CC(Oc1cc(-c2nccs2)cnc1N)c1cc(F)ccc1Cl (centres unmarked) [XFL-169]	8.17	–	1.12 ± 0.014	> 10	> 100	15.9	–
CC(Oc1cc(-c2cn(C)cn2)cnc1N)c1cc(F)ccc1Cl (centres unmarked) [XFL-171]	4.47	–	1.84 ± 0.025	> 10	11.9 ± 0.31	13.5	–
CC(Oc1cc(-n2cccn2)cnc1N)c1cc(F)ccc1Cl (centres unmarked) [XFL-179]	> 50	–	0.931 ± 0.032	7.78	> 100	> 50	–
